Results from US20210045385A1, “PYRIDAZINONE-SUBSTITUTED KETOXIMES AS HERBICIDES” (FMC Corporation, priority 2018, published 2021).

How the values were obtained:
Type in all cases: in vivo
[1] = system: Italian ryegrass (Lolium multiflorum); assay: Test A preemergence, visual plant response rating; conditions: approx. 10 days
Method in brief: (§1)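 Preemergence: seeds in loam/sand blend given directed soil spray of compound in non-phytotoxic solvent with surfactant. Postemergence: plants 2–10 cm, one- to two-leaf stage, sprayed with same formulation. Visual injury rated vs untreated controls after ~10 days in greenhouse, 0 (no effect) to 100 (complete control).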

[2] = system: barnyardgrass (Echinochloa crus-galli); assay: Test A preemergence, visual plant response rating; conditions: approx. 10 days
Method in brief: as §1

[3] = system: foxtail, green (green foxtail, Setaria viridis); assay: Test A preemergence, visual plant response rating; conditions: approx. 10 days
Method in brief: as §1

kochia (Kochia scoparia) [4] = assay: Test A preemergence, visual plant response rating; conditions: approx. 10 days
Method in brief: as §1

[5] = system: pigweed (Amaranthus retroflexus); assay: Test A preemergence, visual plant response rating; conditions: approx. 10 days
Method in brief: as §1

[6] = system: ragweed (common ragweed, Ambrosia elatior); assay: Test A preemergence, visual plant response rating; conditions: approx. 10 days
Method in brief: as §1

[7] = system: Italian ryegrass (Lolium multiflorum); assay: Test A postemergence, visual plant response rating; conditions: for Ryegrass, Italian plant response rating (0 to 100 scale): 500 g ai/ha, postemergence, 0 is no effect, 100 is complete control; for Ryegrass, Italian plant response rating: Postemergence, 125 g ai/ha, 0 to 100 scale (0 no effect, 100 complete control)
Method in brief: as §1

[8] = system: barnyardgrass (Echinochloa crus-galli); assay: Test A postemergence, visual plant response rating; conditions: for Barnyardgrass plant response rating (0 to 100 scale): 500 g ai/ha, postemergence, 0 is no effect, 100 is complete control; for Barnyardgrass plant response rating: Postemergence, 125 g ai/ha, 0 to 100 scale (0 no effect, 100 complete control)
Method in brief: as §1

[9] = system: blackgrass (Alopecurus myosuroides); assay: Test A postemergence, visual plant response rating; conditions: for Blackgrass plant response rating (0 to 100 scale): 500 g ai/ha, postemergence, 0 is no effect, 100 is complete control; for Blackgrass plant response rating: Postemergence, 125 g ai/ha, 0 to 100 scale (0 no effect, 100 complete control)
Method in brief: as §1

corn (Zea mays) = assay: Test A postemergence, visual plant response rating; conditions: for Corn plant response rating (0 to 100 scale): 500 g ai/ha, postemergence, 0 is no effect, 100 is complete control; for Corn plant response rating: Postemergence, 125 g ai/ha, 0 to 100 scale (0 no effect, 100 complete control)
Method in brief: as §1

[10] = system: foxtail, green (green foxtail, Setaria viridis); assay: Test A postemergence, visual plant response rating; conditions: for Foxtail, Green plant response rating (0 to 100 scale): 500 g ai/ha, postemergence, 0 is no effect, 100 is complete control; for Foxtail, Green plant response rating: Postemergence, 125 g ai/ha, 0 to 100 scale (0 no effect, 100 complete control)
Method in brief: as §1

[11] = system: galium (catchweed bedstraw, Galium aparine); assay: Test A postemergence, visual plant response rating; conditions: for Galium plant response rating (0 to 100 scale): 500 g ai/ha, postemergence, 0 is no effect, 100 is complete control; for Galium plant response rating: Postemergence, 125 g ai/ha, 0 to 100 scale (0 no effect, 100 complete control)
Method in brief: as §1

kochia (Kochia scoparia) [12] = assay: Test A postemergence, visual plant response rating; conditions: for Kochia plant response rating (0 to 100 scale): 500 g ai/ha, postemergence, 0 is no effect, 100 is complete control; for Kochia plant response rating: Postemergence, 125 g ai/ha, 0 to 100 scale (0 no effect, 100 complete control)
Method in brief: as §1

[13] = system: pigweed (Amaranthus retroflexus); assay: Test A postemergence, visual plant response rating; conditions: for Pigweed plant response rating (0 to 100 scale): 500 g ai/ha, postemergence, 0 is no effect, 100 is complete control; for Pigweed plant response rating: Postemergence, 125 g ai/ha, 0 to 100 scale (0 no effect, 100 complete control)
Method in brief: as §1

[14] = system: ragweed (common ragweed, Ambrosia elatior); assay: Test A postemergence, visual plant response rating; conditions: for Ragweed plant response rating (0 to 100 scale): 500 g ai/ha, postemergence, 0 is no effect, 100 is complete control; for Ragweed plant response rating: Postemergence, 125 g ai/ha, 0 to 100 scale (0 no effect, 100 complete control)
Method in brief: as §1

[15] = system: wheat (Triticum aestivum); assay: Test A postemergence, visual plant response rating; conditions: for Wheat plant response rating (0 to 100 scale): 500 g ai/ha, postemergence, 0 is no effect, 100 is complete control; for Wheat plant response rating: Postemergence, 125 g ai/ha, 0 to 100 scale (0 no effect, 100 complete control)
Method in brief: as §1

[16] = system: barnyardgrass (Echinochloa crus-galli); assay: Test B flooded paddy test, visual plant response rating; conditions: 250 g ai/ha, Flood, applied to paddy water, 2-leaf stage, evaluated after 13 to 15 days
Method in brief: (§2)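 Rice, umbrella sedge, ducksalad and barnyardgrass grown to 2-leaf stage; pots flooded 3 cm above soil and compound applied directly to paddy water, depth maintained.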

[17] = system: ducksalad (Heteranhera limosa); assay: as above; conditions: 250 g ai/ha, Flood, applied to paddy water, 2-leaf stage, evaluated after 13 to 15 days
Method in brief: as §2

rice (Oryza sativa) = assay: as above; conditions: 250 g ai/ha, Flood, applied to paddy water, 2-leaf stage, evaluated after 13 to 15 days
Method in brief: as §2

[18] = system: sedge, umbrella (small-flower umbrella sedge, Cyperus difformis); assay: as above; conditions: 250 g ai/ha, Flood, applied to paddy water, 2-leaf stage, evaluated after 13 to 15 days
Method in brief: as §2

Row | SMILES | Ryegrass, Italian plant response rating (0 to 100 scale) ([1]; 125 g ai/ha Preemergence) | Ryegrass, Italian plant response rating (0 to 100 scale) ([1]; 500 g ai/ha Preemergence) | Barnyardgrass plant response rating (0 to 100 scale) ([2]; 125 g ai/ha Preemergence) | Barnyardgrass plant response rating (0 to 100 scale) ([2]; 500 g ai/ha Preemergence) | Foxtail, Green plant response rating (0 to 100 scale) ([3]; 125 g ai/ha Preemergence) | Foxtail, Green plant response rating (0 to 100 scale) ([3]; 500 g ai/ha Preemergence) | Kochia plant response rating (0 to 100 scale) (kochia (Kochia scoparia) [4]; 125 g ai/ha Preemergence) | Kochia plant response rating (0 to 100 scale) (kochia (Kochia scoparia) [4]; 500 g ai/ha Preemergence) | Pigweed plant response rating (0 to 100 scale) ([5]; 125 g ai/ha Preemergence) | Pigweed plant response rating (0 to 100 scale) ([5]; 500 g ai/ha Preemergence) | Ragweed plant response rating (0 to 100 scale) ([6]; 500 g ai/ha Preemergence) | Ryegrass, Italian plant response rating (0 to 100 scale) [7] | Barnyardgrass plant response rating (0 to 100 scale) [8] | Blackgrass plant response rating (0 to 100 scale) [9] | Corn plant response rating (0 to 100 scale) (corn (Zea mays)) | Foxtail, Green plant response rating (0 to 100 scale) [10] | Kochia plant response rating (0 to 100 scale) (kochia (Kochia scoparia) [12]) | Pigweed plant response rating (0 to 100 scale) [13] | Ragweed plant response rating (0 to 100 scale) [14] | Wheat plant response rating (0 to 100 scale) [15] | also measured
1 | CCO/N=C(\c1cccc(Cl)c1)c1c(O)c(C)nn(C)c1=O [Compound 8] | 50 | 50 | 0 | 20 | 10 | 30 | 10 | 60 | 30 | 90 | 100 | 60 | 10 | 20 | 0 | 20 | 70 | 20 | 80 | 0 | Ragweed plant response rating (0 to 100 scale) ([6]; 125 g ai/ha Preemergence): 0; Ryegrass, Italian plant response rating [7]: 30; Barnyardgrass plant response rating [8]: 0; Blackgrass plant response rating [9]: 0; Corn plant response rating (corn (Zea mays)): 0; Foxtail, Green plant response rating [10]: 10; Galium plant response rating (0 to 100 scale) [11]: 90; Galium plant response rating [11]: 80; Kochia plant response rating (kochia (Kochia scoparia) [12]): 10; Pigweed plant response rating [13]: 0; Ragweed plant response rating [14]: 20; Wheat plant response rating [15]: 0; Plant response rating, Barnyardgrass (0 to 100 scale, 0 is no effect, 100 is complete control) [16]: 0; Plant response rating, Ducksalad (0 to 100 scale, 0 is no effect, 100 is complete control) [17]: 0; Plant response rating, Rice (0 to 100 scale, 0 is no effect, 100 is complete control) (rice (Oryza sativa)): 0; Plant response rating, Sedge, Umbrella (0 to 100 scale, 0 is no effect, 100 is complete control) [18]: 0
2 | CO/N=C(/c1c(O)c(C)nn(C)c1=O)c1cccc2ccccc12 [Compound 31] | 40 | 70 | 10 | 70 | 30 | 90 | 10 | 90 | 40 | 90 | 80 | 90 | 90 | 90 | 50 | 80 | 80 | 90 | 90 | 20 | Ragweed plant response rating (0 to 100 scale) ([6]; 125 g ai/ha Preemergence): 30; Ryegrass, Italian plant response rating [7]: 60; Barnyardgrass plant response rating [8]: 40; Blackgrass plant response rating [9]: 80; Corn plant response rating (corn (Zea mays)): 20; Foxtail, Green plant response rating [10]: 50; Galium plant response rating (0 to 100 scale) [11]: 90; Galium plant response rating [11]: 90; Kochia plant response rating (kochia (Kochia scoparia) [12]): 70; Pigweed plant response rating [13]: 60; Ragweed plant response rating [14]: 70; Wheat plant response rating [15]: 0; Plant response rating, Barnyardgrass (0 to 100 scale, 0 is no effect, 100 is complete control) [16]: 25; Plant response rating, Ducksalad (0 to 100 scale, 0 is no effect, 100 is complete control) [17]: 0; Plant response rating, Rice (0 to 100 scale, 0 is no effect, 100 is complete control) (rice (Oryza sativa)): 40; Plant response rating, Sedge, Umbrella (0 to 100 scale, 0 is no effect, 100 is complete control) [18]: 0
3 | CO/N=C(\c1cccc(C)c1)c1c(O)c(C2CC2)nn(C)c1=O [Compound 27] |  | 10 |  | 10 |  | 0 |  | 0 |  | 0 | 10 | 20 | 0 | 10 | 0 | 0 | 0 | 30 | 40 | 20 | Galium plant response rating (0 to 100 scale) [11]: 80
4 | CO/N=C(/c1cccc(Cl)c1)c1c(O)c(C)nn(C)c1=O [Compound 11, 4-[(Z)-(3-chlorophenyl)(methoxyimino)methyl]-5-hydroxy-2,6-dimethyl-3(2H)-pyridazinone] | 60 | 80 | 0 | 40 | 0 | 70 | 10 | 80 | 40 | 100 | 50 | 80 | 10 | 70 | 10 | 40 | 80 | 80 | 100 | 10 | Ragweed plant response rating (0 to 100 scale) ([6]; 125 g ai/ha Preemergence): 50; Ryegrass, Italian plant response rating [7]: 60; Barnyardgrass plant response rating [8]: 10; Blackgrass plant response rating [9]: 30; Corn plant response rating (corn (Zea mays)): 0; Foxtail, Green plant response rating [10]: 10; Kochia plant response rating (kochia (Kochia scoparia) [12]): 70; Pigweed plant response rating [13]: 40; Ragweed plant response rating [14]: 80; Wheat plant response rating [15]: 0; Plant response rating, Barnyardgrass (0 to 100 scale, 0 is no effect, 100 is complete control) [16]: 0; Plant response rating, Ducksalad (0 to 100 scale, 0 is no effect, 100 is complete control) [17]: 0; Plant response rating, Rice (0 to 100 scale, 0 is no effect, 100 is complete control) (rice (Oryza sativa)): 0; Plant response rating, Sedge, Umbrella (0 to 100 scale, 0 is no effect, 100 is complete control) [18]: 0
5 | CO/N=C(\c1cccc(Cl)c1)c1c(O)c(C)nn(C)c1=O [Compound 10, 4-[(E)-(3-chlorophenyl)(methoxyimino)methyl]-5-hydroxy-2,6-dimethyl-3(2H)-pyridazinone] | 30 | 90 | 0 | 10 | 20 | 20 | 30 | 90 | 20 | 100 | 90 | 90 | 10 | 30 | 0 | 20 | 80 | 60 | 100 | 20 | Ragweed plant response rating (0 to 100 scale) ([6]; 125 g ai/ha Preemergence): 70; Ryegrass, Italian plant response rating [7]: 60; Barnyardgrass plant response rating [8]: 0; Blackgrass plant response rating [9]: 10; Corn plant response rating (corn (Zea mays)): 0; Foxtail, Green plant response rating [10]: 0; Kochia plant response rating (kochia (Kochia scoparia) [12]): 70; Pigweed plant response rating [13]: 20; Ragweed plant response rating [14]: 90; Wheat plant response rating [15]: 0; Plant response rating, Barnyardgrass (0 to 100 scale, 0 is no effect, 100 is complete control) [16]: 0; Plant response rating, Ducksalad (0 to 100 scale, 0 is no effect, 100 is complete control) [17]: 0; Plant response rating, Rice (0 to 100 scale, 0 is no effect, 100 is complete control) (rice (Oryza sativa)): 0; Plant response rating, Sedge, Umbrella (0 to 100 scale, 0 is no effect, 100 is complete control) [18]: 0
